Assay [1] has as its system MDA-MB-231. In words: drug sensitivity score (DSS), cytotoxicity CellTox Green; higher = more cytotoxic; extreme values may be limits of the assay. Particulars: 72 h.
The subject of assay [2] is MDA-MB-231. Nature of the assay: drug sensitivity score (DSS), cell viability CellTiter-Glo; higher = more sensitive; extreme values may be limits of the assay. As to conditions: 72 h.

SMILES strings stand for the structures.
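Throughout, for drug sensitivity score (DSS), cytotoxicity CellTox Green: DSS summarises each dose–response curve by combining IC50, EC50, maximal inhibition and efficacy across drug concentrations.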

On to `CC(C)(C)Cn1c(N)nc2ccc(-c3[nH]c(C(C)(C)C)nc3-c3ccc(F)cc3)nc21` [Ralimetinib], for which the drug sensitivity score in assay [1] (shRNA: shPPFIA1_1) came out at 0 DSS; in assay [1] (shRNA: shScramble) it was 0 DSS; in assay [2] (shRNA: shPPFIA1_1), 0.2 DSS; in assay [2] (shRNA: shScramble), 0 DSS.
Turning to `CC(C)N(C[C@H]1O[C@@H](n2cnc3c(N)ncnc32)[C@H](O)[C@@H]1O)[C@H]1C[C@@H](CCc2nc3cc(C(C)(C)C)ccc3[nH]2)C1` [Pinometostat], the drug sensitivity score in assay [1] (shRNA: shPPFIA1_1), in assay [1] (shRNA: shScramble), in assay [2] (shRNA: shPPFIA1_1) and in assay [2] (shRNA: shScramble) was 0 DSS in each case.
`NC(=O)Nc1sc(-c2ccc(F)cc2)cc1C(N)=O` [TPCA-1]: the drug sensitivity score amounted to 0.9 DSS in assay [1] (shRNA: shPPFIA1_1), 0 DSS in assay [1] (shRNA: shScramble), 0 DSS in assay [2] (shRNA: shPPFIA1_1) and 1.9 DSS in assay [2] (shRNA: shScramble).
Take `Cc1cnc(-c2ccccc2C(C)C)nc1NCc1ccc(-n2ccnn2)cc1` [ML323]: the drug sensitivity score in assay [1] (shRNA: shPPFIA1_1) is 0 DSS; in assay [1] (shRNA: shScramble) it was 0 DSS; in assay [2] (shRNA: shPPFIA1_1) it was 0 DSS; in assay [2] (shRNA: shScramble) it was 1.7 DSS.
Consider `C=C(c1ccc(C(=O)O)cc1)c1cc2c(cc1C)C(C)(C)CCC2(C)C` [Bexarotene], for which the drug sensitivity score in assay [1] (shRNA: shPPFIA1_1), in assay [1] (shRNA: shScramble), in assay [2] (shRNA: shPPFIA1_1) and in assay [2] (shRNA: shScramble) was 0 DSS throughout.
For the compound `O=C(O)c1ccc(CN2CCC(CN[C@@H]3C[C@H]3c3ccccc3)CC2)cc1`, the drug sensitivity score in assay [1] (shRNA: shPPFIA1_1), in assay [1] (shRNA: shScramble), in assay [2] (shRNA: shPPFIA1_1) and in assay [2] (shRNA: shScramble) was 0 DSS each time.
For the compound `COc1ccc(CCc2nc3cc(-c4c(C)noc4C)ccc3n2C[C@H](C)N2CCOCC2)cc1Cl` [SGC-CBP30], the drug sensitivity score in assay [1] (shRNA: shPPFIA1_1) is 0 DSS; in assay [1] (shRNA: shScramble) it was 0 DSS; in assay [2] (shRNA: shPPFIA1_1), 0 DSS; in assay [2] (shRNA: shScramble) it was 2.4 DSS.
Consider `CCn1cc(-c2ccnc3[nH]c(-c4cccc(CN(C)C)c4)cc23)c(-c2ccc(NC(=O)N(C)C)cc2)n1`, for which the drug sensitivity score was 0 DSS in assay [1] (shRNA: shPPFIA1_1), 6.4 DSS in assay [1] (shRNA: shScramble), 3.9 DSS in assay [2] (shRNA: shPPFIA1_1) and 0 DSS in assay [2] (shRNA: shScramble).
As to `COc1cc2c(NC3CCN(C(C)C)CC3)nc(N3CCC(F)(F)CC3)nc2cc1OCCCN1CCCC1` [UNC0642], the drug sensitivity score in assay [1] (shRNA: shPPFIA1_1) amounted to 3 DSS; in assay [1] (shRNA: shScramble), 0.5 DSS; in assay [2] (shRNA: shPPFIA1_1), 3.5 DSS; in assay [2] (shRNA: shScramble) it was 3.1 DSS.
The like results for `C=CC(=O)Nc1cc(Nc2nccc(-c3cn(C)c4ccccc34)n2)c(OC)cc1N(C)CCN(C)C` [Osimertinib] were, in that order, 0 DSS, 0 DSS, 1.2 DSS and 3.9 DSS.
As to `CN(C)C(=N)NC(=N)N` [Metformin], the drug sensitivity score in assay [1] (shRNA: shPPFIA1_1), in assay [1] (shRNA: shScramble), in assay [2] (shRNA: shPPFIA1_1) and in assay [2] (shRNA: shScramble) was 0 DSS each time.
Consider `Cn1cc(-c2cnn3c(N)c(Br)c([C@@H]4CCCNC4)nc23)cn1` [MK-8776], for which the drug sensitivity score in assay [1] (shRNA: shPPFIA1_1) was 0 DSS; in assay [1] (shRNA: shScramble), 0 DSS; in assay [2] (shRNA: shPPFIA1_1), 0 DSS; in assay [2] (shRNA: shScramble), 2.9 DSS.
Consider `NC(=S)N/N=C/c1ncccc1N` [Triapine], for which the drug sensitivity score in assay [1] (shRNA: shPPFIA1_1) is 0 DSS; in assay [1] (shRNA: shScramble), 0 DSS; in assay [2] (shRNA: shPPFIA1_1), 0 DSS; in assay [2] (shRNA: shScramble) it was 1.2 DSS.
In the case of `CC(C)(C)c1nc(-c2cccc(NS(=O)(=O)c3c(F)cccc3F)c2F)c(-c2ccnc(N)n2)s1` [Dabrafenib], the drug sensitivity score in assay [1] (shRNA: shPPFIA1_1) is 0.9 DSS; in assay [1] (shRNA: shScramble) it was 0.9 DSS; in assay [2] (shRNA: shPPFIA1_1) it was 0 DSS; in assay [2] (shRNA: shScramble) it was 0 DSS.
As for `Cc1[nH]c(/C=C2\C(=O)Nc3ccccc32)c(C)c1CCC(=O)O` [Orantinib], the drug sensitivity score in assay [1] (shRNA: shPPFIA1_1) was found to be 10.8 DSS; in assay [1] (shRNA: shScramble) it was 16.2 DSS; in assay [2] (shRNA: shPPFIA1_1), 0 DSS; in assay [2] (shRNA: shScramble), 0 DSS.
For `Cc1ccc(NC(=O)c2ccc(CN3CC[C@H](N(C)C)C3)c(C(F)(F)F)c2)cc1Nc1nccc(-c2cncnc2)n1` [Bafetinib], the drug sensitivity score in assay [1] (shRNA: shPPFIA1_1) was determined as 0.6 DSS; in assay [1] (shRNA: shScramble), 0.5 DSS; in assay [2] (shRNA: shPPFIA1_1), 0 DSS; in assay [2] (shRNA: shScramble), 4.3 DSS.
